# Test results from publication PMC6010916, “Safety and pharmacokinetics of veliparib extended‐release in patients with advanced solid tumors: a phase I study” (Cancer Medicine, 2018).
# Assay: Safety: treatment-emergent adverse events (NCI CTCAE version 4.0)
# Type: in vivo, human
# [1] = All cycles, All patients (N = 71)
# [2] = All cycles, Part 1, extension (n = 24)
# [3] = Cycle 1, Part 1, extension (n = 24)
# Experimental: Adverse event (AE) severity was assessed according to the National Cancer Institute Common Terminology Criteria for Adverse Events (NCI CTCAE) version 4.0. Tumor evaluations were performed at screening, every 8 weeks after the first administration of study drug, and at the final visit using radiographic measurements from computed tomography or magnetic resonance imaging. Objective tumor responses were evaluated using RECIST version 1.1 criteria. Patients who received one or more doses of veliparib were included in the PK and safety analyses, as well as for evaluation of time to disease progression (TTP). Patients with one or more measurable lesion at baseline were included in the analysis of objective responses.
structure (smiles),measurement,setting,value
C[C@]1(c2nc3c(C(N)=O)cccc3[nH]2)CCCN1 [veliparib],Any SAE,[1],20 (28.2) n (%)
same,SAE leading to discontinuation,[1],8 (11.3) n (%)
same,SAE leading to dose interruption,[1],14 (19.7) n (%)
same,SAE leading to dose reduction,[1],1 (1.4) n (%)
same,TEAE: Any AE,[1],70 (98.6) n (%)
same,TEAE: At least possibly related to study drug,[1],60 (84.5) n (%)
same,TEAE: NCI CTCAE grade 3 or 4,[1],28 (39.4) n (%)
same,Any SAE,[2],5 (20.8) n (%)
same,SAE leading to discontinuation,[2],3 (12.5) n (%)
same,SAE leading to dose interruption,[2],4 (16.7) n (%)
same,SAE leading to dose reduction,[2],0 n (%)
same,TEAE: Abdominal pain,[2],3 (12.5) n (%)
same,TEAE: Anemia,[2],3 (12.5) n (%)
same,TEAE: Any AE,[2],23 (95.8) n (%)
same,TEAE: At least possibly related to study drug,[2],17 (70.8) n (%)
same,TEAE: Constipation,[2],5 (20.8) n (%)
same,TEAE: Decreased appetite,[2],1 (4.2) n (%)
same,TEAE: Diarrhea,[2],5 (20.8) n (%)
same,TEAE: Fatigue,[2],7 (29.2) n (%)
same,TEAE: NCI CTCAE grade 3 or 4,[2],7 (29.2) n (%)
same,"TEAE: Nausea, Grade 1",[2],11 (45.8) n (%)
same,"TEAE: Nausea, Grade 2",[2],3 (12.5) n (%)
same,"TEAE: Nausea, Grade 3",[2],0 n (%)
same,TEAE: Urinary tract infection,[2],7 (29.2) n (%)
same,TEAE: Vomiting,[2],11 (45.8) n (%)
same,"TEAE: Vomiting, Grade 1",[2],11 (45.8) n (%)
same,"TEAE: Vomiting, Grade 2",[2],0 n (%)
same,"TEAE: Vomiting, Grade 3",[2],0 n (%)
same,Any SAE,"All cycles, Part 2 (n = 35)",11 (31.4) n (%)
same,SAE leading to discontinuation,"All cycles, Part 2 (n = 35)",4 (11.4) n (%)
same,SAE leading to dose interruption,"All cycles, Part 2 (n = 35)",6 (17.1) n (%)
same,SAE leading to dose reduction,"All cycles, Part 2 (n = 35)",1 (2.9) n (%)
same,TEAE: Abdominal pain,"All cycles, Part 2 (n = 35)",7 (20.0) n (%)
same,TEAE: Anemia,"All cycles, Part 2 (n = 35)",10 (28.6) n (%)
same,TEAE: Any AE,"All cycles, Part 2 (n = 35)",35 (100) n (%)
same,TEAE: At least possibly related to study drug,"All cycles, Part 2 (n = 35)",33 (94.3) n (%)
same,TEAE: Constipation,"All cycles, Part 2 (n = 35)",14 (40.0) n (%)
same,TEAE: Decreased appetite,"All cycles, Part 2 (n = 35)",11 (31.4) n (%)
same,TEAE: Diarrhea,"All cycles, Part 2 (n = 35)",10 (28.6) n (%)
same,TEAE: Fatigue,"All cycles, Part 2 (n = 35)",14 (40.0) n (%)
same,TEAE: NCI CTCAE grade 3 or 4,"All cycles, Part 2 (n = 35)",17 (48.6) n (%)
same,TEAE: Nausea,"All cycles, Part 2 (n = 35)",31 (88.6) n (%)
same,"TEAE: Nausea, Grade 1","All cycles, Part 2 (n = 35)",24 (68.6) n (%)
same,"TEAE: Nausea, Grade 2","All cycles, Part 2 (n = 35)",5 (14.3) n (%)
same,"TEAE: Nausea, Grade 3","All cycles, Part 2 (n = 35)",2 (5.7) n (%)
same,TEAE: Urinary tract infection,"All cycles, Part 2 (n = 35)",5 (14.3) n (%)
same,TEAE: Vomiting,"All cycles, Part 2 (n = 35)",17 (48.6) n (%)
same,"TEAE: Vomiting, Grade 1","All cycles, Part 2 (n = 35)",13 (37.1) n (%)
same,"TEAE: Vomiting, Grade 2","All cycles, Part 2 (n = 35)",3 (8.6) n (%)
same,"TEAE: Vomiting, Grade 3","All cycles, Part 2 (n = 35)",1 (2.9) n (%)
same,Any SAE,"All cycles, Part 3 (n = 12)",4 (33.3) n (%)
same,SAE leading to discontinuation,"All cycles, Part 3 (n = 12)",1 (8.3) n (%)
same,SAE leading to dose interruption,"All cycles, Part 3 (n = 12)",4 (33.3) n (%)
same,SAE leading to dose reduction,"All cycles, Part 3 (n = 12)",0 n (%)
same,TEAE: Abdominal pain,"All cycles, Part 3 (n = 12)",4 (33.3) n (%)
same,TEAE: Anemia,"All cycles, Part 3 (n = 12)",2 (16.7) n (%)
same,TEAE: Any AE,"All cycles, Part 3 (n = 12)",12 (100) n (%)
same,TEAE: At least possibly related to study drug,"All cycles, Part 3 (n = 12)",10 (83.3) n (%)
same,TEAE: Constipation,"All cycles, Part 3 (n = 12)",4 (33.3) n (%)
same,TEAE: Decreased appetite,"All cycles, Part 3 (n = 12)",2 (16.7) n (%)
same,TEAE: Diarrhea,"All cycles, Part 3 (n = 12)",6 (50.0) n (%)
same,TEAE: Fatigue,"All cycles, Part 3 (n = 12)",2 (16.7) n (%)
same,TEAE: NCI CTCAE grade 3 or 4,"All cycles, Part 3 (n = 12)",4 (33.3) n (%)
same,TEAE: Nausea,"All cycles, Part 3 (n = 12)",9 (75.0) n (%)
same,"TEAE: Nausea, Grade 1","All cycles, Part 3 (n = 12)",6 (50.0) n (%)
same,"TEAE: Nausea, Grade 2","All cycles, Part 3 (n = 12)",2 (16.7) n (%)
same,"TEAE: Nausea, Grade 3","All cycles, Part 3 (n = 12)",1 (8.3) n (%)
same,TEAE: Urinary tract infection,"All cycles, Part 3 (n = 12)",3 (25.0) n (%)
same,TEAE: Vomiting,"All cycles, Part 3 (n = 12)",7 (58.3) n (%)
same,"TEAE: Vomiting, Grade 1","All cycles, Part 3 (n = 12)",4 (33.3) n (%)
same,"TEAE: Vomiting, Grade 2","All cycles, Part 3 (n = 12)",2 (16.7) n (%)
same,"TEAE: Vomiting, Grade 3","All cycles, Part 3 (n = 12)",1 (8.3) n (%)
same,Any SAE,"Cycle 1, All patients (N = 71)",10 (14.1) n (%)
same,SAE leading to discontinuation,"Cycle 1, All patients (N = 71)",4 (5.6) n (%)
same,SAE leading to dose interruption,"Cycle 1, All patients (N = 71)",6 (8.5) n (%)
same,SAE leading to dose reduction,"Cycle 1, All patients (N = 71)",1 (1.4) n (%)
same,TEAE: Any AE,"Cycle 1, All patients (N = 71)",67 (94.4) n (%)
same,TEAE: At least possibly related to study drug,"Cycle 1, All patients (N = 71)",50 (70.4) n (%)
same,TEAE: NCI CTCAE grade 3 or 4,"Cycle 1, All patients (N = 71)",13 (18.3) n (%)
same,Any SAE,[3],4 (16.7) n (%)
same,SAE leading to discontinuation,[3],3 (12.5) n (%)
same,SAE leading to dose interruption,[3],2 (8.3) n (%)
same,SAE leading to dose reduction,[3],0 n (%)
